Converted amounts (≈) assume the structure as drawn. Where a name gives a salt, the structure may show the parent alone. Read-outs that look alike come from different tables or passages of the source.
Columns and labels:
rat rIALP = experiment: Recombinant intestinal alkaline phosphatase (rIALP) assay, rat; type: in vitro ADME; conditions: 100 mM Tris-HCl buffer pH 7.4, 37° C., 120 minutes incubation, read-out: t1/2 in rat rIALP
Method: (§1) Examples 8 and 9 were evaluated in this assay. To assess the potential for generation of parent drug from the phosphate prodrugs, 100 μL of rIALP was dissolved in 100 mM Tris-HCl buffer (pH 7.4) and it was added to 100 μL of freshly prepared prodrug solution (10 mM) prepared in the same buffer. Incubations were performed in triplicate using 96-well plates (Waters, Milford, Mass.) at 37° C. in a shaking water bath (Julabo, Allentown, Pa.). The prodrug and enzyme solution were pre-warmed at 37° C. before the reaction was initiated by addition of substrate. The incubation was performed for 120 minutes with […] taken at 0, 5, 10, 15, 30, 60, 90, and 120 minutes. The assays were terminated at designated time points by the addition of 200 μL of ice-cold acetonitrile containing internal standard followed by centrifugation at 4000 g for 4 minutes. The supernatant was transferred to a new 96-well plate for analysis by ultra-performance liquid chromatography combined with tandem mass spectrometry (UPLC-MS/MS). The t1/2 value for each prodrug/protein combination was determined from the natural logarithm of percent remaining versus time plots.

human rIALP = target: T1, human rIALP (Homo sapiens, UniProt P09923); experiment: Recombinant intestinal alkaline phosphatase (rIALP) assay, human; type: in vitro ADME; conditions: 100 mM Tris-HCl buffer pH 7.4, 37° C., 120 minutes incubation, read-out: t1/2 in human rIALP
T1 sequence (P09923 20-503 limits assumed): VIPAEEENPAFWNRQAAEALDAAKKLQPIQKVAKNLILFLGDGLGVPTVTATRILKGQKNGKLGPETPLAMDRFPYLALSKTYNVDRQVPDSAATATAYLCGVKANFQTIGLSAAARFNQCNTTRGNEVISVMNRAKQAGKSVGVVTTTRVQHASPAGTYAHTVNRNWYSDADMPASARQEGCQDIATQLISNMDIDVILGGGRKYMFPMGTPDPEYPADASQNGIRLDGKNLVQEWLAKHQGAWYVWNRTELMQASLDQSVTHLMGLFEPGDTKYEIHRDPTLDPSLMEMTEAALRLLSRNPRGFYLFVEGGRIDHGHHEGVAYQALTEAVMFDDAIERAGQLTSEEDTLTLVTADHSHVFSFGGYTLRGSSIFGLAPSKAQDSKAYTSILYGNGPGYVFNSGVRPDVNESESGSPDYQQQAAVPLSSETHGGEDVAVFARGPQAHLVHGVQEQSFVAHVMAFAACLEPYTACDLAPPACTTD
Method: as §1

[1] = Stability evaluation in aqueous buffer; type: physicochemical; conditions: aqueous buffer, 37° C., about 50 μg/mL, about 15% v/v acetonitrile
Method: The stability study of an individual prodrug was conducted with about 50 μg/mL solutions in aqueous buffers of pH 1 (0.1 M HCl), 4 (acetate buffer) and 6.5 (phosphate buffer) at 37° C. for 24 hours. About 15% v/v acetonitrile was used in these pH buffers as a co-solvent to obtain clear solutions of prodrugs. The sample analysis was carried out using a generic reversed phase liquid chromatographic (LC) method with UV detection. The area percent (AP) loss of the prodrug peak was quantified as a function of time. The appearance of parent peak was identified from the chromatographic retention time. The half-life (t1/2, h) of the prodrug was calculated by using a pseudo-first order equation from a AP loss vs time plot.

[2] = Solubility evaluation in aqueous buffer; type: physicochemical; conditions: aqueous buffer, 25 °C, thermodynamic from solid, about 24 hours equilibration
Method: The solid powder of an individual prodrug was equilibrated in aqueous buffers of pH 1, 4 and 6.5 at 25° C. for about 24 hours. After equilibration, the excess solid was separated by filtration using 0.45 μm membrane filter and the filtrate was collected in suitable glass vial. The filtrate was diluted appropriately using respective buffers/diluent and analyzed by a reversed phase LC method with UV detection.

[3] = pH 1, pH 1 (0.1 M HCl), read-out: Stability (t1/2, h) at 37° C. pH 1 (converted)
[4] = pH 4, pH 4 (acetate buffer), read-out: Stability (t1/2, h) at 37° C. pH 4 (converted)
[5] = pH 6.5, pH 6.5 (phosphate buffer), read-out: Stability (t1/2, h) at 37° C. pH 6.5 (converted)
[6] = pH 1, simulated gastric fluid, aqueous buffer pH 1, 25° C., read-out: Solubility (mg/mL) at 25° C. pH 1
[7] = pH 4, aqueous buffer, aqueous buffer pH 4, 25° C., read-out: Solubility (mg/mL) at 25° C. pH 4
[8] = pH 6.5, aqueous buffer, aqueous buffer pH 6.5, 25° C., read-out: Solubility (mg/mL) at 25° C. pH 6.5

Row | half-life at 5 mM (rat rIALP) [days] | half-life at 5 mM (human rIALP) [days] | half-life [1, 3] [h] | half-life [1, 4] [h] | half-life [1, 5] [h] | solubility [2, 6] [mg/mL] | solubility [2, 7] [mg/mL] | solubility [2, 8] [mg/mL] | SMILES
1 | < 0.00347 | < 0.00694 | > 500 | > 500 | > 500 | > 0.86 | 0.03 | 0.86 | Cc1c(-c2[nH]c3ccc(C4CCN(CC(N)=O)CC4)cc3c2C(C)C)cn2nc[n+](COP(=O)(O)O)c2c1C (single isomer, unassigned) [Example 8, 6-(5-(1-(2-Amino-2-oxoethyl)piperidin-4-yl)-3-isopropyl-1H-indol-2-yl)-7,8-dimethyl-1-((phosphonooxy)methyl)-[1,2,4]triazolo[1,5-a]pyridin-1-ium trifluoroacetate]
2 | < 0.00347 | < 0.00347 | > 500 | > 500 | > 500 | > 1.14 | 0.85 | 1.34 | Cc1c(-c2[nH]c3ccc(C4CC[N+](COP(=O)(O)O)(CC(N)=O)CC4)cc3c2C(C)C)cn2ncnc2c1C (single isomer, unassigned) [Example 9, 1-(2-Amino-2-oxoethyl)-4-(2-(7,8-dimethyl-[1,2,4]triazolo[1,5-a]pyridin-6-yl)-3-isopropyl-1H-indol-5-yl)-1-((phosphonooxy)methyl)piperidin-1-ium trifluoroacetate]
3 |  |  | > 500 | > 500 | > 500 | > 1.39 | > 2.93 | 0.1 (≈ 194 µM) | CCOC(=O)n1c(-c2cn3ncnc3c(C)c2C)c(C(C)C)c2cc(C3CCN(CC(N)=O)CC3)ccc21 [Example 24, Ethyl 5-(1-(2-amino-2-oxoethyl)piperidin-4-yl)-2-(7,8-dimethyl-[1,2,4]triazolo[1,5-a]pyridin-6-yl)-3-isopropyl-1H-indole-1-carboxylate]
4 |  |  | 179 | > 500 | > 500 | > 1.41 | 1.28 (≈ 2700 µM) | 0.01 (≈ 21.1 µM) | Cc1c(-c2c(C(C)C)c3cc(C4CCN(CC(N)=O)CC4)ccc3n2CO)cn2ncnc2c1C [Example 25, 2-(4-(2-(7,8-Dimethyl-[1,2,4]triazolo[1,5-a]pyridin-6-yl)-1-(hydroxymethyl)-3-isopropyl-1H-indol-5-yl)piperidin-1-yl)acetamide]
